Assay results: the NIST ThermoML archive (doi:10.1007/s10765-006-0047-0)

Key:
[1] = xn = mol fraction of the nth substance listed; details: 298.15 K, 101 kPa, Liquid, Sing-around technique in a fixed-path interferometer
[2] = 298.15 K, 101.33 kPa, Liquid; for mass density: Pycnometric method; for speed of sound: Sing-around technique in a fixed-path interferometer

CCCCOCCOCCOCCCC [5,8,11-trioxapentadecane] + CCCN
[1]
Details | speed of sound [m/s]
x1 = 0.0033 | 1215.3
x1 = 0.0114 | 1215.5
x1 = 0.033 | 1217.3
x1 = 0.0476 | 1218.4
x1 = 0.0724 | 1221
x1 = 0.0955 | 1222.8
x1 = 0.139 | 1227.3
x1 = 0.1781 | 1231.7
x1 = 0.2413 | 1237.2
x1 = 0.3004 | 1242
x1 = 0.3569 | 1245.8
x1 = 0.4169 | 1249.5
x1 = 0.4689 | 1251.9
x1 = 0.5355 | 1255.2
x1 = 0.5925 | 1258.2
x1 = 0.6493 | 1260.8
x1 = 0.6979 | 1262.9
x1 = 0.7548 | 1264.7
x1 = 0.8153 | 1266.6
x1 = 0.8686 | 1268.2
x1 = 0.9 | 1269
x1 = 0.9241 | 1269.5
x1 = 0.9526 | 1269.9
x1 = 0.977 | 1270.1
x1 = 0.991 | 1270.3

CCOCCOCCOCC [diethylene glycol diethyl ether] + CCCN
[1]
Details | speed of sound [m/s]
x1 = 0.0035 | 1214.7
x1 = 0.0108 | 1214.5
x1 = 0.025 | 1214
x1 = 0.0591 | 1214.1
x1 = 0.0865 | 1214.7
x1 = 0.1134 | 1215.2
x1 = 0.1662 | 1217.3
x1 = 0.2091 | 1218.8
x1 = 0.2738 | 1221.4
x1 = 0.3214 | 1223.8
x1 = 0.3658 | 1225.7
x1 = 0.3939 | 1227
x1 = 0.4846 | 1230.5
x1 = 0.5313 | 1232.3
x1 = 0.5713 | 1233.8
x1 = 0.6319 | 1235.6
x1 = 0.6754 | 1236.7
x1 = 0.7192 | 1238.1
x1 = 0.7754 | 1239.4
x1 = 0.8066 | 1240.1
x1 = 0.8729 | 1241.7
x1 = 0.9037 | 1242.1
x1 = 0.9238 | 1242.2
x1 = 0.9448 | 1242.3
x1 = 0.9638 | 1242.4
x1 = 0.9835 | 1242.5
x1 = 0.9916 | 1242.2

CCOCCOCCO [3,6-dioxa-1-octanol]
[2]
Details | mass density [kg/m3] | speed of sound [m/s]
– | 983.84 | 1377.3

CCCCOCCOCCOCCCC [5,8,11-trioxapentadecane]
[2]
Details | mass density [kg/m3] | speed of sound [m/s]
– | 878.55 | 1270.1

CCCN [propan-1-amine] + COCCO
[1]
Details | speed of sound [m/s]
x2 = 0.0036 | 1215.3
x2 = 0.0101 | 1216.4
x2 = 0.0272 | 1218.3
x2 = 0.047 | 1221.7
x2 = 0.0831 | 1227.4
x2 = 0.1175 | 1232.5
x2 = 0.1521 | 1238.8
x2 = 0.1977 | 1247
x2 = 0.2378 | 1254
x2 = 0.2982 | 1265.6
x2 = 0.3629 | 1276.6
x2 = 0.4188 | 1285.8
x2 = 0.474 | 1294.1
x2 = 0.5181 | 1299.6
x2 = 0.5862 | 1307.8
x2 = 0.6459 | 1314.6
x2 = 0.7102 | 1321.5
x2 = 0.799 | 1329.7
x2 = 0.8253 | 1331.6
x2 = 0.8642 | 1334.2
x2 = 0.8918 | 1336.2
x2 = 0.908 | 1338
x2 = 0.9316 | 1339.5
x2 = 0.9621 | 1341.5
x2 = 0.9824 | 1342.9
x2 = 0.9932 | 1343.4
x2 = 0.9989 | 1343.5

COCCO [2-methoxyethan-1-ol]
[2]
Details | mass density [kg/m3] | speed of sound [m/s]
– | 960.32 | 1343.3

CCCCOCCOCCO [3,6-dioxa-1-decanol]
[2]
Details | mass density [kg/m3] | speed of sound [m/s]
– | 947.98 | 1358.9

COCCOCCOCCO [2-[2-(2-methoxyethoxy)ethoxy]ethanol] + CCCN
[1]
Details | speed of sound [m/s]
x1 = 0.0039 | 1216.1
x1 = 0.0134 | 1219.9
x1 = 0.0327 | 1226.9
x1 = 0.0519 | 1234.2
x1 = 0.0799 | 1245.4
x1 = 0.108 | 1258
x1 = 0.1484 | 1274.9
x1 = 0.2102 | 1299.7
x1 = 0.2743 | 1324.5
x1 = 0.341 | 1347.6
x1 = 0.3879 | 1361.8
x1 = 0.4351 | 1375
x1 = 0.5433 | 1398.7
x1 = 0.5904 | 1407.5
x1 = 0.6475 | 1416
x1 = 0.6873 | 1422.1
x1 = 0.7353 | 1429.5
x1 = 0.7806 | 1434.9
x1 = 0.8226 | 1441.1
x1 = 0.8873 | 1448.3
x1 = 0.9295 | 1452.6
x1 = 0.9565 | 1456.2
x1 = 0.9751 | 1457
x1 = 0.9898 | 1458.5
x1 = 0.9973 | 1458.7

CCOCCOCCOCC [diethylene glycol diethyl ether]
[2]
Details | mass density [kg/m3] | speed of sound [m/s]
– | 902.76 | 1241.9

CCCN [propan-1-amine]
[2]
Details | mass density [kg/m3] | speed of sound [m/s]
– | 712.25 | 1215.2

COCCOCCO [2-(2-methoxyethoxy)ethanol]
[2]
Details | mass density [kg/m3] | speed of sound [m/s]
– | 1016.43 | 1417.2

COCCOCCO [2-(2-methoxyethoxy)ethanol] + CCCN
[1]
Details | speed of sound [m/s]
x1 = 0.0055 | 1215.3
x1 = 0.0112 | 1217
x1 = 0.024 | 1220.2
x1 = 0.0454 | 1225.5
x1 = 0.0749 | 1233.3
x1 = 0.0948 | 1238.6
x1 = 0.1292 | 1249.1
x1 = 0.1834 | 1264.6
x1 = 0.2523 | 1284.5
x1 = 0.309 | 1301.5
x1 = 0.3831 | 1320.8
x1 = 0.4484 | 1337
x1 = 0.5041 | 1349.4
x1 = 0.5603 | 1360.6
x1 = 0.6353 | 1373.2
x1 = 0.6792 | 1380
x1 = 0.7209 | 1385.9
x1 = 0.7775 | 1392.7
x1 = 0.8121 | 1397.5
x1 = 0.8725 | 1404.9
x1 = 0.912 | 1408.8
x1 = 0.9332 | 1411.2
x1 = 0.9535 | 1413.1
x1 = 0.9852 | 1416.5
x1 = 0.9983 | 1417.1

CCCCOCCOCCO [3,6-dioxa-1-decanol] + CCCN
[1]
Details | speed of sound [m/s]
x1 = 0.0052 | 1215.5
x1 = 0.0133 | 1218.1
x1 = 0.0295 | 1223
x1 = 0.0505 | 1228.7
x1 = 0.0779 | 1236.9
x1 = 0.1487 | 1256.7
x1 = 0.2053 | 1272.3
x1 = 0.2645 | 1286.7
x1 = 0.318 | 1298.6
x1 = 0.378 | 1310.2
x1 = 0.4304 | 1319.4
x1 = 0.4767 | 1326
x1 = 0.5226 | 1331.6
x1 = 0.5715 | 1336.8
x1 = 0.6306 | 1342.1
x1 = 0.6855 | 1346.2
x1 = 0.7347 | 1349.4
x1 = 0.7728 | 1351.3
x1 = 0.8152 | 1353.3
x1 = 0.87 | 1355.9
x1 = 0.9073 | 1356.7
x1 = 0.9289 | 1357.7
x1 = 0.9504 | 1358.3
x1 = 0.9663 | 1358.5
x1 = 0.9813 | 1358.7

COCCOCCOCCO [2-[2-(2-methoxyethoxy)ethoxy]ethanol]
[2]
Details | mass density [kg/m3] | speed of sound [m/s]
– | 1043.06 | 1459

CCOCCOCCO [3,6-dioxa-1-octanol] + CCCN
[1]
Details | speed of sound [m/s]
x1 = 0.0021 | 1215.3
x1 = 0.0048 | 1215.4
x1 = 0.0177 | 1218.7
x1 = 0.0374 | 1223.3
x1 = 0.0647 | 1230.5
x1 = 0.0909 | 1236.8
x1 = 0.1313 | 1247.7
x1 = 0.1669 | 1257.2
x1 = 0.2491 | 1278.4
x1 = 0.3135 | 1293.9
x1 = 0.3898 | 1310.7
x1 = 0.4519 | 1322.7
x1 = 0.4879 | 1329.1
x1 = 0.5348 | 1337.5
x1 = 0.5888 | 1344.5
x1 = 0.6314 | 1349.7
x1 = 0.6808 | 1355.5
x1 = 0.7314 | 1359.9
x1 = 0.7778 | 1363.7
x1 = 0.8381 | 1367.3
x1 = 0.876 | 1370
x1 = 0.9121 | 1371.4
x1 = 0.9343 | 1373.1
x1 = 0.9624 | 1374.6
x1 = 0.9887 | 1375.9
x1 = 0.9971 | 1376.8
